ChEMBL document CHEMBL1136669, “Synthesis of aza and oxaglutamyl-p-nitroanilide derivatives and their kinetic studies with gamma-glutamyltranspeptidase” (Bioorg Med Chem Lett, 2003)

Biological target: Glutathione hydrolase 1 proenzyme (Rattus norvegicus, UniProt P07314)
Experiment: Compound was tested for the competitive inhibition of rat kidney gamma-glutamyltranspeptidase (gamma-GGT)

Chain of Glutathione hydrolase 1 proenzyme (P07314 1-379 limits assumed): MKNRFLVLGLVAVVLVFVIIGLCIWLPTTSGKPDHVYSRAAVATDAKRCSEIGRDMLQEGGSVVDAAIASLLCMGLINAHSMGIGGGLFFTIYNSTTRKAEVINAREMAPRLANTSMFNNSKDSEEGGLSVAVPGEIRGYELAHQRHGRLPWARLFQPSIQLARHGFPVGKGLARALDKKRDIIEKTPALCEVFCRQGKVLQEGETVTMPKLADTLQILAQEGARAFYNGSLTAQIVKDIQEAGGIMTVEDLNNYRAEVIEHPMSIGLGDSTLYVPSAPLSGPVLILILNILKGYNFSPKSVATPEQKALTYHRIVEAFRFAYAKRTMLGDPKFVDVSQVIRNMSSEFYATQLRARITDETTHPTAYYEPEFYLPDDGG
Chain of Glutathione hydrolase 1 proenzyme (P07314 380-568 limits assumed): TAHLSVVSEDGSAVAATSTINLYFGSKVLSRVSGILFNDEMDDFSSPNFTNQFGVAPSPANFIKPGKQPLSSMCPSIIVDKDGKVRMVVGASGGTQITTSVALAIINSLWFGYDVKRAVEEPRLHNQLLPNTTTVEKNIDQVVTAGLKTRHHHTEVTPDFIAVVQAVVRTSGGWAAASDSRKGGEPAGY

- Ki comp: 3.8 mM
SMILES: Cl.N[C@@H](CNC(=O)Nc1ccc([N+](=O)[O-])cc1)C(=O)O
